Test results: patent USRE39050E1, “Methods of use for inhibiting bone loss and lowering serum cholesterol” (Eli Lilly and Company, priority 1994, dated 2006)
Where a name gives a salt, the structure may show the parent alone. Marks after values point to notes of the source that are not given here.

Assays:
[1] = system: healthy post-menopausal women; assay: 8-week parallel, double-blind, placebo study: serum lipids (GGGC); assay type: in vivo, human; conditions: 8 weeks
Experimental: (§1) An 8-week parallel, double-blind, placebo study in approximately 160 healthy post-menopausal women was completed. The doses of raloxifene used in this study were 10, 50, and 200 mg. […] (See Table I) Because of development over time seen with many bone markers, a raloxifene dose of 50 mg/day will likely be fully active when evaluated during a study of longer duration.
Serum lipid levels were affected by raloxifene doses of 50 and 200 mg (Table II).

[2] = system: healthy post-menopausal women; assay: 8-week parallel, double-blind, placebo study: markers of bone metabolism (GGGC); assay type: in vivo, human; conditions: 8 weeks
Experimental: as §1

Question: With `O=C(c1ccc(OCCN2CCCCC2)cc1)c1c(-c2ccc(O)cc2)sc2cc(O)ccc12` [Raloxifene, 6-hydroxy-2-(4-hydroxyphenyl)-3[4-(2-piperidinoethoxy)benzoyl]benzo[b]thiophene, hydrochloride] as the molecule, how does the “LDL cholesterol (in words)” value ([1]; 50 mg) read?
Answer: Decreases

Question: What about the “LDL cholesterol (in words)” value ([1]; 200 mg) of the same molecule?
Answer: comparable decrease

Question: What about the “HDL:LDL ratios (in words)” value ([1]; both the 50 and 200 mg doses) of the same molecule?
Answer: Statistically significant decreases

Question: What about the “total serum cholesterol levels (in words)” value ([1]; both the 50 and 200 mg doses) of the same molecule?
Answer: Statistically significant decreases

Question: And the “HDL-C, mean group change from baseline to endpoint” value (from here on “HDL-C, mean group change”) ([1]; raloxifene 10 mg, n = 42)?
Answer: 0.01 mmol/L

Question: What about the “HDL-C:LDL-C ratio, mean group change from baseline to endpoint” value (“HDL-C:LDL-C ratio, mean group change” for short) ([1]; raloxifene 10 mg, n = 42) of the same molecule?
Answer: 0.00

Question: What about the “LDL-C, mean group change from baseline to endpoint” value (“LDL-C, mean group change” for short) ([1]; raloxifene 10 mg, n = 42) of the same molecule?
Answer: 0.05 mmol/L

Question: And the “Toal cholesterol, mean group change from baseline to endpoint” value (“Toal cholesterol, mean group change” for short) ([1]; raloxifene 10 mg, n = 42)?
Answer: 0.01 mmol/L

Question: What about the “HDL-C, mean group change” value ([1]; raloxifene 50 mg, n = 42) of the same molecule?
Answer: 0.04 mmol/L

Question: And the “HDL-C:LDL-C ratio, mean group change” value ([1]; raloxifene 50 mg, n = 42)?
Answer: 0.03*

Question: And the “LDL-C, mean group change” value ([1]; raloxifene 50 mg, n = 42)?
Answer: −0.23* mmol/L

Question: And the “Toal cholesterol, mean group change” value ([1]; raloxifene 50 mg, n = 42)?
Answer: −0.23* mmol/L

Question: What about the “HDL-C, mean group change” value ([1]; raloxifene 200 mg, n = 41) of the same molecule?
Answer: 0.02 mmol/L

Question: What about the “HDL-C:LDL-C ratio, mean group change” value ([1]; raloxifene 200 mg, n = 41) of the same molecule?
Answer: 0.03*

Question: And the “LDL-C, mean group change” value ([1]; raloxifene 200 mg, n = 41)?
Answer: -0.17 mmol/L

Question: What about the “Toal cholesterol, mean group change” value ([1]; raloxifene 200 mg, n = 41) of the same molecule?
Answer: -0.15 mmol/L

Question: And the “HDL levels (in words)” value ([1]; raloxifene-treated subjects)?
Answer: no changes

Question: And the “activity with either bone marker (in words)” value ([2]; 10 mg dose)?
Answer: no significant activity

Question: What about the “Serum alkaline phosphatase, mean group change from baseline to endpoint” value ([2]; raloxifene 10 mg, n = 42) of the same molecule?
Answer: 0.21 U/L

Question: And the “Serum osteocalcin, mean group change from baseline to endpoint” value (“Serum osteocalcin, mean group change” below) ([2]; raloxifene 10 mg, n = 42)?
Answer: -0.27 ng/mL

Question: What about the “Serum alkaline phosphatase, mean group change from baseline to endpoint” value ([2]; raloxifene 50 mg, n = 42) of the same molecule?
Answer: −4.78 U/L

Question: What about the “Serum osteocalcin, mean group change” value ([2]; raloxifene 50 mg, n = 42) of the same molecule?
Answer: -0.81 ng/mL

Question: What about the “Serum alkaline phosphatase, mean group change from baseline to endpoint” value ([2]; raloxifene 200 mg, n = 41) of the same molecule?
Answer: −5.93* U/L

Question: And the “Serum osteocalcin, mean group change” value ([2]; raloxifene 200 mg, n = 41)?
Answer: −1.21* ng/mL
